Laboratory results from patent publication US12496346B2, “Phospholipid-flavagline conjugates and methods of using the same for targeted cancer therapy” (Cellectar Biosciences, Inc., priority 2019, dated 2025).

Tests used:
[1] = tested on: Mammary alveolar hyperplasia; assay: Uptake in benign tissues; type: in vivo; details: Endogenous Mouse
Intestinal Polyp = assay: Uptake in benign tissues; type: in vivo; details: Endogenous Mouse, Adenoma (benign)
A549 cells = assay: Uptake of PDC after disruption of lipid rafts; type: cell-based, human; details: lipid rafts disrupted with methyl b-cyclodextrin vs untreated cells; 5 μM, 24 hours
Protocol: A549 cells were plated overnight into separate wells.

[2] = tested on: Human prostate adenocarcinoma cells (PC3); assay: Co-localization with endoplasmic reticulum; type: cell-based; details: 5 μM, 24 hours, ER-tracker
Description: After washing, the cells were co-stained with ER-tracker® per protocol and imaged using Nikon A1R confocal light microscope. CLR 1501 and ER were excited and detected using Alexa-Fluor 488 using standard fluorescein filters.

[3] = tested on: PC3 (grade IV, human prostate adenocarcinoma) cell lines; assay: Co-localization with mitochondria; type: cell-based; details: 5 μM, 24 hours, Mitotracker
Description: The cells were observed using Nikon A1R confocal microscope.

[4] = tested on: Caki-2 tumor cells (human clear cell renal cell carcinoma); assay: Selective uptake of PDC in co-culture; type: cell-based; details: 5 μM, 24 hours, co-culture with normal fibroblast
Protocol: (§2) Normal fibroblast and Caki-2 tumor cells (human clear cell renal cell carcinoma) were plated and co-cultured overnight (FIG. 1F). […] The next day cells were washed and co-stained with nucleus stain (Hoescht 33342). CLR 1501 was excited and then detected with an Alexa-Fluor 488 filter.

Mammary AC = assay: Tumor uptake of PLE; type: in vivo; details: Apc^Min/+ mouse, Adenocarcinoma
Protocol: (§1) Tumor cell uptake was measured continuously for 24 hours.

Pancreatic c-myc = assay: Tumor uptake of PLE; type: in vivo; details: Endogenous Mouse, Adenocarcinoma
Protocol: as §1

Glioma RG2 = assay: Tumor uptake of PLE; type: in vivo; details: Rat xenograft
Protocol: as §1

Ovarian HTB-77 = assay: Tumor uptake of PLE; type: in vivo; details: Nude Mouse, Adenocarcinoma
Protocol: as §1

Melanoma = assay: Tumor uptake of PLE; type: in vivo; details: Mouse, Adenocarcinoma
Protocol: as §1

Retinoblastoma = assay: Tumor uptake of PLE; type: in vivo; details: Endogenous Mouse, Blastoma
Protocol: as §1

Colon DLDI = assay: Tumor uptake of PLE; type: in vivo; details: SCID Mouse, Colorectal adenocarcinoma
Protocol: as §1

Colon HT-29 = assay: Tumor uptake of PLE; type: in vivo; details: SCID Mouse, Colorectal adenocarcinoma
Protocol: as §1

Lung A-549 (NSCLC) = assay: Tumor uptake of PLE; type: in vivo; details: SCID Mouse, Adenocarcinoma
Protocol: as §1

Renal Cell Caki-2 = assay: Tumor uptake of PLE; type: in vivo; details: Nude Mouse (orthotopic), Adenocarcinoma
Protocol: as §1

Prostate PC-3 = assay: Tumor uptake of PLE; type: in vivo; details: SCID Mouse, Adenocarcinoma
Protocol: as §1

Lung NCI H-69 (Oat Cell) = assay: Tumor uptake of PLE; type: in vivo; details: SCID Mouse, Adenocarcinoma
Protocol: as §1

Cervical = assay: Tumor uptake of PLE; type: in vivo; details: Endogenous Mouse, Adenocarcinoma
Protocol: as §1

Prostate LuCap = assay: Tumor uptake of PLE; type: in vivo; details: Mouse, Adenocarcinoma
Protocol: as §1

Walker-256 = assay: Tumor uptake of PLE; type: in vivo; details: Rat, Carcinosarcoma
Protocol: as §1

Colon LS-180 = assay: Tumor uptake of PLE; type: in vivo; details: Nude Mouse, Adenocarcinoma
Protocol: as §1

Breast MCF-7 = assay: Tumor uptake of PLE; type: in vivo; details: Rat, Adenocarcinoma
Protocol: as §1

Pancreatic Capan-1 = assay: Tumor uptake of PLE; type: in vivo; details: Nude Mouse, Adenocarcinoma
Protocol: as §1

Prostate MatLyLu = assay: Tumor uptake of PLE; type: in vivo; details: Rat, Adenocarcinoma
Protocol: as §1

Colon CT-26 = assay: Tumor uptake of PLE; type: in vivo; details: SCID Mouse, Adenocarcinoma
Protocol: as §1

Glioma CNS1 = assay: Tumor uptake of PLE; type: in vivo; details: Rat xenograft
Protocol: as §1

Adrenal H-295 = assay: Tumor uptake of PLE; type: in vivo; details: SCID Mouse, Adenocarcinoma
Protocol: as §1

Pancreatic BXPC3 = assay: Tumor uptake of PLE; type: in vivo; details: Nude Mouse, Adenocarcinoma
Protocol: as §1

TRAMP prostate = assay: Tumor uptake of PLE; type: in vivo; details: Endogenous Mouse, Adenocarcinoma
Protocol: as §1

Glioma L9 = assay: Tumor uptake of PLE; type: in vivo; details: Rat xenograft
Protocol: as §1

Glioma C6 = assay: Tumor uptake of PLE; type: in vivo; details: Rat xenograft
Protocol: as §1

Breast 4T1 = assay: Tumor uptake of PLE; type: in vivo; details: Endogenous Mouse (orthotopic), Adenocarcinoma
Protocol: as §1

ColonLS180 = assay: Tumor uptake of PLE; type: in vivo; details: SCID Mouse, Colorectal adenocarcinoma
Protocol: as §1

Esophageal = assay: Tumor uptake of PLE; type: in vivo; details: Endogenous Mouse, Adenocarcinoma
Protocol: as §1

SCC6 = assay: Tumor uptake of PLE; type: in vivo; details: Nude Mouse, Adenocarcinoma
Protocol: as §1

Pancreatic Kras = assay: Tumor uptake of PLE; type: in vivo; details: Endogenous Mouse, Adenocarcinoma
Protocol: as §1

Adrenal RL-251 = assay: Tumor uptake of PLE; type: in vivo; details: SCID Mouse, Adenocarcinoma
Protocol: as §1

SCC1 = assay: Tumor uptake of PLE; type: in vivo; details: Nude Mouse, Squamous cell carcinoma
Protocol: as §1

Hepatocellular Carcinoma = assay: Tumor uptake of PLE; type: in vivo; details: Endogenous Mouse, Adenocarcinoma
Protocol: as §1

Melanoma A-375 = assay: Tumor uptake of PLE; type: in vivo; details: Nude Mouse, Adenocarcinoma
Protocol: as §1

Min Mouse Intestinal = assay: Tumor uptake of PLE; type: in vivo; details: Endogenous Mouse, Adenocarcinoma
Protocol: as §1

Prostate LnCap = assay: Tumor uptake of PLE; type: in vivo; details: Mouse, Adenocarcinoma
Protocol: as §1

Colon-51 = assay: Tumor uptake of PLE; type: in vivo; details: SCID Mouse, Colorectal adenocarcinoma
Protocol: as §1

Renal Cell ACHN = assay: Tumor uptake of PLE; type: in vivo; details: Nude Mouse (orthotopic), Adenocarcinoma
Protocol: as §1

Sarcoma (Meth-A) = assay: Tumor uptake of PLE; type: in vivo; details: Nude Mouse, Fibrosarcoma
Protocol: as §1

Mammary SCC = assay: Tumor uptake of PLE; type: in vivo; details: Apc^Min/+ mouse, Squamous cell carcinoma
Protocol: as §1

Normal fibroblast = assay: Selective uptake of PDC in co-culture; type: cell-based; details: 5 μM, 24 hours, co-culture with Caki-2
Protocol: as §2

[5] = tested on: Colorectal (HCT-116) tumor; assay: In vivo imaging of targeted delivery; set-up: species or system nude mouse
Protocol: Initial targeting noted within 30 minutes (not shown).

C[N+](C)(C)CCOP(=O)([O-])OCCCCCCCCCCCCCCCCCCc1ccc(I)cc1 [CLR1404]
No: Tumor Uptake [1] | Tumor Uptake (Intestinal Polyp)

C[N+](C)(C)CCOP(=O)([O-])OCCCCCCCCCCCCCCCCCCc1ccc(C2=C3C=CC=[N+]3[B-](F)(F)n3cccc32)cc1 [CLR 1501]
co-localized with mitochondria: co-localization with mitochondria [3]
60%: reduction in uptake (A549 cells)
Yes: Tumor Uptake (Mammary AC) | Tumor Uptake (Pancreatic c-myc) | Tumor Uptake (Glioma RG2) | Tumor Uptake (Ovarian HTB-77) | Tumor Uptake (Melanoma) | Tumor Uptake (Retinoblastoma) | Tumor Uptake (Colon DLDI) | Tumor Uptake (Colon HT-29) | Tumor Uptake (Lung A-549 (NSCLC)) | Tumor Uptake (Renal Cell Caki-2) | Tumor Uptake (Prostate PC-3) | Tumor Uptake (Lung NCI H-69 (Oat Cell)) | Tumor Uptake (Cervical) | Tumor Uptake (Prostate LuCap) | Tumor Uptake (Walker-256) | Tumor Uptake (Colon LS-180) | Tumor Uptake (Breast MCF-7) | Tumor Uptake (Pancreatic Capan-1) | Tumor Uptake (Prostate MatLyLu) | Tumor Uptake (Colon CT-26) | Tumor Uptake (Glioma CNS1) | Tumor Uptake (Adrenal H-295) | Tumor Uptake (Pancreatic BXPC3) | Tumor Uptake (TRAMP prostate) | Tumor Uptake (Glioma L9) | Tumor Uptake (Glioma C6) | Tumor Uptake (Breast 4T1) | Tumor Uptake (ColonLS180) | Tumor Uptake (Esophageal) | Tumor Uptake (SCC6) | Tumor Uptake (Pancreatic Kras) | Tumor Uptake (Adrenal RL-251) | Tumor Uptake (SCC1) | Tumor Uptake (Hepatocellular Carcinoma) | Tumor Uptake (Melanoma A-375) | Tumor Uptake (Min Mouse Intestinal) | Tumor Uptake (Prostate LnCap) | Tumor Uptake (Colon-51) | Tumor Uptake (Renal Cell ACHN) | Tumor Uptake (Sarcoma (Meth-A)) | Tumor Uptake (Mammary SCC)
highly localized: localization in Caki-2 cells [4]
co-localized with ER in malignant: co-localization with ER [2]
minimally: localization in normal fibroblast cells (Normal fibroblast)

CN1/C(=C/C=C2\CCCC(/C=C/C3=[N+](C)c4ccccc4C3(C)C)=C2c2ccc(CCCCCCCCCCCCCCCCCCOP(=O)(O)OCC[N+](C)(C)C)cc2)C(C)(C)c2ccccc21 [CLR 1502]
≤ 30 min: time to initial targeting ([5]; 1 mg injected)
≤ 24 h: time to maximum distribution ([5]; 1 mg injected, Pearl Infrared Imaging System)
the tumor still showed red color: distribution in tumor ([5]; approximately 5.5 hours post injection, 1 mg)
